Laboratory results published in ChEMBL document CHEMBL1134446, “Polyamine analogue antidiarrheals: a structure-activity study” (J Med Chem, 2001).
“And” between values parts separate entries of the source, which are not always exact repeats. Equal entries are not always repeated.

How the values were obtained:
Canis familiaris [1] = assay: Spermine Distribution in liver was determined after DEHSPM dosing of 2.0 mg/kg/day for 29 days in dog(cu dose-52.4) and sacrificed at 10 days PLD(cu dose-22 mg/kg); assay type: ADME, organism-based, Canis lupus familiaris; settings: in vivo, 240 h
Canis familiaris [2] = assay: HSPM Distribution in kidney was determined after DEHSPM dosing of 2.0 mg/kg/day for 29 days in dog(cu dose-52.4) and sacrificed at 10 days PLD(cu dose-22 mg/kg); assay type: ADME, organism-based, Canis lupus familiaris; settings: in vivo, 240 h
Canis familiaris [3] = assay: Spermidine Distribution in kidney was determined after DEHSPM dosing of 2.0 mg/kg/day for 29 days in dog(cu dose-52.4) and sacrificed at 10 days PLD(cu dose-58 mg/kg); assay type: ADME, organism-based, Canis lupus familiaris; settings: in vivo, 240 h
Canis familiaris [4] = assay: putrescine Distribution in liver was determined after DEHSPM dosing of 2.0 mg/kg/day for 29 days in dog(cu dose-52.4) and sacrificed at 10 days PLD(cu dose-58 mg/kg); assay type: ADME, organism-based, Canis lupus familiaris; settings: in vivo, 240 h
Canis familiaris [5] = assay: Distribution in kidney was determined after DESPM dosing of 8.0 mg/kg/day for 4.5 days in dog(cu dose-52.4) and sacrificed at 75 days PLD(cu dose-36 mg/kg); assay type: ADME, organism-based, Canis lupus familiaris; settings: in vivo, 1800 h
Canis familiaris [6] = assay: putrescine Distribution in liver was determined after DEHSPM dosing of 2.0 mg/kg/day for 29 days in dog(cu dose-52.4) and sacrificed at 10 days PLD([…]); assay type: ADME, organism-based, Canis lupus familiaris; settings: in vivo, 240 h
Canis familiaris [7] = assay: Distribution in liver was determined after DESPM dosing of 8.0 mg/kg/day for 4.5 days in dog(cu dose-52.4) and sacrificed at 75 days PLD(cu dose-36 mg/kg); assay type: ADME, organism-based, Canis lupus familiaris; settings: in vivo, 1800 h
Canis familiaris [8] = assay: putrescine putrescine Distribution in kidney was determined after DEHSPM dosing of 2.0 mg/kg/day for 29 days in dog(cu dose-52.4) and sacrificed at 10 days PLD(cu dose-58 mg/kg); assay type: ADME, organism-based, Canis lupus familiaris; settings: in vivo, 240 h
Canis familiaris [9] = assay: Distribution in kidney was determined after DESPM dosing of 8.0 mg/kg/day for 4.5 days in dog(cu dose-52.4) and sacrificed at 10 days PLD(cu dose-36 mg/kg); assay type: ADME, organism-based, Canis lupus familiaris; settings: in vivo, 240 h
Canis familiaris [10] = assay: Distribution in kidney was determined after DESPM dosing of 4 mg/kg/day for 13 days in dog(cu dose-52.4) and sacrificed at 75 days PLD(cu dose-52 mg/kg); assay type: ADME, organism-based, Canis lupus familiaris; settings: in vivo, 1800 h
Canis familiaris [11] = assay: HSPM Distribution in kidney was determined after DEHSPM dosing of 2.0 mg/kg/day for 29 days in dog(cu dose-52.4) and sacrificed at 10 days PLD(cu dose-58 mg/kg); assay type: ADME, organism-based, Canis lupus familiaris; settings: in vivo, 240 h
Canis familiaris [12] = assay: putrescine Distribution in kidney was determined after DESPM dosing of 1.87 mg/kg/day for 28 days in dog and sacrificed at 75 days PLD(cu dose-52.4 mg/kg); assay type: ADME, organism-based, Canis lupus familiaris; settings: in vivo, 1800 h
Canis familiaris [13] = assay: putrescine Distribution in kidney was determined after DESPM dosing of 6.0 mg/kg/day for 4.5 days in dog and sacrificed at 10 days PLD(cu dose-27 mg/kg); assay type: ADME, organism-based, Canis lupus familiaris; settings: in vivo, 240 h
Rattus norvegicus [14] = assay: Percent reduction was determined by using the ratio of mean of treated animal to that of control animal at a dose of 14.3 mg/kg; assay type: functional
Canis familiaris [15] = assay: putrescine Distribution in kidney was determined after DESPM dosing of 6.0 mg/kg/day for 4.5 days in dog and sacrificed at 75 days PLD(cu dose-27 mg/kg); assay type: ADME, organism-based, Canis lupus familiaris; settings: in vivo, 1800 h
Rattus norvegicus [16] = assay: Weight loss of rat over the 6-h experimental period when a dose of 14.3 mg/kg (35.4 administered; assay type: functional
Canis familiaris [17] = assay: Spermidine Distribution in liver was determined after DESPM dosing of 8.0 mg/kg/day for 4.5 days in dog(cu dose-52.4) and sacrificed at 75 days PLD(cu dose-36 mg/kg); assay type: ADME, organism-based, Canis lupus familiaris; settings: in vivo, 1800 h
Canis familiaris [18] = assay: Spermidine Distribution in kidney was determined after DESPM dosing of 4 mg/kg/day for 13 days in dog(cu dose-52.4) and sacrificed at 10 days PLD(cu dose-52 mg/kg); assay type: ADME, organism-based, Canis lupus familiaris; settings: in vivo, 240 h
Canis familiaris [19] = assay: putrescine Distribution in liver was determined after DESPM dosing of 8.0 mg/kg/day for 4.5 days in dog(cu dose-52.4) and sacrificed at 10 days PLD(cu dose-36 mg/kg); assay type: ADME, organism-based, Canis lupus familiaris; settings: in vivo, 240 h
Canis familiaris [20] = assay: Spermine Distribution in kidney was determined after DESPM dosing of 8.0 mg/kg/day for 4.5 days in dog(cu dose-52.4) and sacrificed at 10 days PLD(cu dose-36 mg/kg); assay type: ADME, organism-based, Canis lupus familiaris; settings: in vivo, 240 h
Canis familiaris [21] = assay: putrescine Distribution in kidney was determined after DESPM dosing of 4.0 mg/kg/day for 13 days in dog and sacrificed at 10 days PLD(cu dose-52 mg/kg); assay type: ADME, organism-based, Canis lupus familiaris; settings: in vivo, 240 h
Canis familiaris [22] = assay: Spermidine Distribution in liver was determined after DESPM dosing of 4 mg/kg/day for 13 days in dog(cu dose-52.4) and sacrificed at 75 days PLD(cu dose-52 mg/kg); assay type: ADME, organism-based, Canis lupus familiaris; settings: in vivo, 1800 h
Canis familiaris [23] = assay: MESPM/MEHSPH Distribution in kidney was determined after DESPM dosing of 1.87 mg/kg/day for 28 days in dog(cu dose-52.4) and sacrificed at 75 days PLD(cu dose-52.4 mg/kg); assay type: ADME, organism-based, Canis lupus familiaris; settings: in vivo, 1800 h
Canis familiaris [24] = assay: Spermine Distribution in liver was determined after DESPM dosing of 4 mg/kg/day for 13 days in dog(cu dose-52.4) and sacrificed at 10 days PLD(cu dose-52 mg/kg); assay type: ADME, organism-based, Canis lupus familiaris; settings: in vivo, 240 h
Canis familiaris [25] = assay: MESPM/MEHSPH Distribution in liver was determined after DESPM dosing of 8.0 mg/kg/day for 4.5 days in dog(cu dose-52.4) and sacrificed at 75 days PLD(cu dose-36 mg/kg); assay type: ADME, organism-based, Canis lupus familiaris; settings: in vivo, 1800 h
Canis familiaris [26] = assay: Spermine Distribution in liver was determined after DESPM dosing of 4 mg/kg/day for 13 days in dog(cu dose-52.4) and sacrificed at 75 days PLD(cu dose-52 mg/kg); assay type: ADME, organism-based, Canis lupus familiaris; settings: in vivo, 1800 h
Canis familiaris [27] = assay: MESPM/MEHSPH Distribution in liver was determined after DESPM dosing of 6.0 mg/kg/day for 4.5 days in dog(cu dose-52.4) and sacrificed at 10 days PLD(cu dose-27 mg/kg); assay type: ADME, organism-based, Canis lupus familiaris; settings: in vivo, 240 h
Canis familiaris [28] = assay: Spermidine Distribution in liver was determined after DESPM dosing of 4 mg/kg/day for 13 days in dog(cu dose-52.4) and sacrificed at 10 days PLD(cu dose-52 mg/kg); assay type: ADME, organism-based, Canis lupus familiaris; settings: in vivo, 240 h
Rattus norvegicus [29] = assay: Weight loss of rat over the 6-h experimental period when a dose of 4.7 mg/kg (11.6 administered; assay type: functional
Rattus norvegicus [30] = assay: Stool output of rat over the 6-h collection period when a dose of 9.4 mg/kg (23.3 administered; assay type: functional
Canis familiaris [31] = assay: MESPM/MEHSPH Distribution in liver was determined after DESPM dosing of 1.87 mg/kg/day for 28 days in dog(cu dose-52.4) and sacrificed at 10 days PLD(cu dose-52.4 mg/kg); assay type: ADME, organism-based, Canis lupus familiaris; settings: in vivo, 240 h
Canis familiaris [32] = assay: Spermidine Distribution in kidney was determined after DESPM dosing of 1.87 mg/kg/day for 28 days in dog(cu dose-52.4) and sacrificed at 75 days PLD(cu dose-52.4 mg/kg); assay type: ADME, organism-based, Canis lupus familiaris; settings: in vivo, 1800 h
Canis familiaris [33] = assay: putrescine Distribution in kidney was determined after DESPM dosing of 4.0 mg/kg/day for 13 days in dog and sacrificed at 75 days PLD(cu dose-52 mg/kg); assay type: ADME, organism-based, Canis lupus familiaris; settings: in vivo, 1800 h

CCNCCCCNCCCCNCCCCNCC [DIETHYLHOMOSPERMINE]
Wet weight of tissue (Canis familiaris [1]): 386 nM/g | Wet weight of tissue (Canis familiaris [2]): 43 nM/g | Wet weight of tissue (Canis familiaris [3]): 41 nM/g | Wet weight of tissue (Canis familiaris [4]): 19 nM/g | Wet weight of tissue (Canis familiaris [5]): 0 nM/g | Wet weight of tissue (Canis familiaris [6]): 34 nM/g | Wet weight of tissue (Canis familiaris [7]): 0 nM/g | Wet weight of tissue (Canis familiaris [8]): 5 nM/g | Wet weight of tissue (Canis familiaris [9]): 48 nM/g | Wet weight of tissue (Canis familiaris [10]): 0 nM/g | Wet weight of tissue (Canis familiaris [11]): 269 nM/g

CCNCCCNCCCCNCCCNCC [BIS(ETHYL)SPERMINE]
Wet weight of tissue (Canis familiaris [12]): 16 nM/g | Wet weight of tissue (Canis familiaris [13]): 7 nM/g | Reduction (Rattus norvegicus [14]): 66% and 92% | Wet weight of tissue (Canis familiaris [15]): 8 nM/g | Weight loss (Rattus norvegicus [16]): <4.4 g | Wet weight of tissue (Canis familiaris [17]): 221 nM/g | Wet weight of tissue (Canis familiaris [18]): 82 nM/g | Wet weight of tissue (Canis familiaris [19]): 109 nM/g | Wet weight of tissue (Canis familiaris [20]): 784 nM/g | Wet weight of tissue (Canis familiaris [21]): 12 nM/g | Wet weight of tissue (Canis familiaris [22]): 264 nM/g | Wet weight of tissue (Canis familiaris [23]): 0 nM/g | Wet weight of tissue (Canis familiaris [24]): 462 nM/g | Wet weight of tissue (Canis familiaris [25]): 0 nM/g | Wet weight of tissue (Canis familiaris [26]): 886 nM/g | Wet weight of tissue (Canis familiaris [27]): 23 nM/g | Wet weight of tissue (Canis familiaris [28]): 176 nM/g | Weight loss (Rattus norvegicus [29]): <7.5 g | Stool output (Rattus norvegicus [30]): <0.6 g (350g of rat weight)-1 | Wet weight of tissue (Canis familiaris [31]): 7 nM/g | Wet weight of tissue (Canis familiaris [32]): 87 nM/g | Wet weight of tissue (Canis familiaris [33]): 7 nM/g
